For the assay, the system named is caspase 3. Nature of the assay: Caspase multiplex activity assay, caspase 3. The settings on record: 72 h; PTX 5, 10 nM; CIP2b 10, 25, 50 μM. It counts as cell-based, human. As to the method:
Apoptosis and caspase activity. The expression of caspase 3, 8, and 9 was measured using Multiplex Activity Assay Fluorometric Kit (Cat. No. ab219915, Abcam). Briefly, Hec50co cells were plated in 96-well plates at a density of 3000 per well in 100 μL of the complete medium and incubated for 24 hours. After incubation, the medium was removed, and different concentrations either in single or combination of treatments were added (PTX 5 and 10 nM; CIP2b 10, 25, and 50 μM). Cells with treatments were incubated for 24 or 72 hours. Then, the caspase kit reagents were added to the cells and incubated at room temperature for 60 minutes. Fluorescence intensity (at excitation/emission values of 535/620 nm, 490/525 nm, and 370/450 nm for caspase 3, 8, and 9, respectively) was then measured using a SpectraMax M5 microplate reader (Molecular Devices).

Molecules are shown by their SMILES.

On to `CC(=O)O[C@H]1C(=O)[C@@]2(C)[C@H]([C@H](OC(=O)c3ccccc3)[C@]3(O)C[C@H](OC(=O)[C@H](O)[C@@H](NC(=O)c4ccccc4)c4ccccc4)C(C)=C1C3(C)C)[C@]1(OC(C)=O)CO[C@@H]1C[C@@H]2O` [PTX, paclitaxel], for which the “levels of caspase 3” value is “high levels of caspase 3”.

For the origin of these results see US20240082238A1, “COMPOSITIONS AND METHODS FOR TREATING CANCER” (UNIVERSITY OF IOWA RESEARCH FOUNDATION, priority 2021, published 2024).
